According to paper PMC8450354, “Codon Optimization of Insect Odorant Receptor Genes May Increase Their Stable Expression for Functional Characterization in HEK293 Cells” (Frontiers in Cellular Neuroscience, 2021):
Each block holds one compound with its values, some of them ahead of it.

Tests used:
Assay in all cases: calcium fluorescence (Fluo-4AM) assay, inducible stable HEK293 cells
Assay type in all cases: cell-based
ItypOR25 = biological target: T1, ItypOR25 (Ips typographus, UniProt A0A8F3ERC7)
T1 construct: full-length, N-terminal V5 tag, codon-optimized gene; with ItypOrco
T1 sequence (A0A8F3ERC7 1-394): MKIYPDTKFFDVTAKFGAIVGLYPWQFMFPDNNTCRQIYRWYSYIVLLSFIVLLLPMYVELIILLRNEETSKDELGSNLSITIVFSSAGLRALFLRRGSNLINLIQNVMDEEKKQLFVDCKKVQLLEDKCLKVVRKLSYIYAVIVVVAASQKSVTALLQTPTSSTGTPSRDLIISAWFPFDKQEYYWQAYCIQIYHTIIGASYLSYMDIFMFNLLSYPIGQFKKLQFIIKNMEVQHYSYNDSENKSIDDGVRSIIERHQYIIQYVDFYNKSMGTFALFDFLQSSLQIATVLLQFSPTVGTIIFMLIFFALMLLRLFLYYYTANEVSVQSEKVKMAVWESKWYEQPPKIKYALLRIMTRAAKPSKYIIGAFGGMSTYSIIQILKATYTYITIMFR
T1 sequence (A0A7L8XYY7 1-480 partner): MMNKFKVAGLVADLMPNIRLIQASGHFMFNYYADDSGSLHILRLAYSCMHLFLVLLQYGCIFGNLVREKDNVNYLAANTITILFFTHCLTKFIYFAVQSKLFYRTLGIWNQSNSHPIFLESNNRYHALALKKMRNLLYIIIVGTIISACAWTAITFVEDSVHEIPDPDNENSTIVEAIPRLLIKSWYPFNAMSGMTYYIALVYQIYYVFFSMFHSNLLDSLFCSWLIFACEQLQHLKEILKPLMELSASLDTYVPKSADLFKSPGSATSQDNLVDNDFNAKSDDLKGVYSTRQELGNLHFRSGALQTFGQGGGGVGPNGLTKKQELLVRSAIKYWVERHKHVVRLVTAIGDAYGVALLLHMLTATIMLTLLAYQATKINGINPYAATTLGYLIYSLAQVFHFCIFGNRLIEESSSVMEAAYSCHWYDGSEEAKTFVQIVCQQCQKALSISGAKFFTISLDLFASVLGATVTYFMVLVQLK

ItypOR49 = biological target: T2, ItypOR49 (Ips typographus, UniProt A0A7L8XYT4)
T2 construct: full-length, N-terminal V5 tag, codon-optimized gene; with ItypOrco
T2 sequence (A0A7L8XYT4 entry or part of it, one chain of several): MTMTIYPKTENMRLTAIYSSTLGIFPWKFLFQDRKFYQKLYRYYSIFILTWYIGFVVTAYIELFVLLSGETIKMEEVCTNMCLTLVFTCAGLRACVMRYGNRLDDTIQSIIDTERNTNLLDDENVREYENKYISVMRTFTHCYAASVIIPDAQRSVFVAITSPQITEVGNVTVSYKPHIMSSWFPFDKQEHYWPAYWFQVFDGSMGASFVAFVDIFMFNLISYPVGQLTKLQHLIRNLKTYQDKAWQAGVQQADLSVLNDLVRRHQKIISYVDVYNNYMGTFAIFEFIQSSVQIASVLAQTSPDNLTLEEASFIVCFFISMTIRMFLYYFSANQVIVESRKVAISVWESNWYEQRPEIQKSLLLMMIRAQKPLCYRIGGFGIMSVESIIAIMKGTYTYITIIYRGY

ItypOrco = biological target: T3, ItypOrco (Ips typographus, UniProt A0A7L8XYY7)
T3 construct: full-length, N-terminal Myc tag, codon-optimized gene, expressed without an OR

- EC50 (ItypOR25): ~24.5 µM
SMILES: CC1=CC[C@@H]2[C@H](C1)C2(C)C [(+)-3-carene]

- EC50 (ItypOR49): 7.1 µM
SMILES: C=CC(=C)C[C@@H](O)C=C(C)C [(R)-(−)-ipsdienol]

- EC50 (ItypOrco): 21.1 µM
SMILES: CCc1ccc(NC(=O)CSc2nnc(-c3cccnc3)n2CC)cc1 [VUAA1]
